# “Also recorded” adds a separate entry of the source.
# Key:
# [1] = tested on: Non-typeable Haemophilus influenzae biofilms; experiment: NTHI in vitro biofilm formation, additive present from seeding (LIVE/DEAD, CLSM, COMSTAT); format: cell-based; conditions: for NTHI biofilm formation (average thickness, biomass): DCHA 50 μM
# Protocol: FIG. 14: Non-typeable Haemophilus influenzae biofilms were grown for 40 h in supplemented BHI medium containing additives as indicated below each bar in 8 well chambered coverglass slides at 37° C. and 5% CO2. Biofilms were washed, stained with LIVE/DEAD®, fixed, and imaged by CLSM. Biofilm parameters were quantified using COMSTAT software.
# Dicyclohexylamine inhibits spermidine synthase via a competitive inhibition mechanism, i.e. through binding to the same site on the protein as the putrescine substrate. Applicants therefore hypothesized that dicyclohexylamine would inhibit NTHi biofilm development. […]
# [2] = tested on: Non-typeable Haemophilus influenzae; experiment: NTHI growth (absorbance at 490 nm, colony-forming units); format: cell-based; conditions: 16 h, supplemented BHI, up to 10 mM
# Protocol: FIG. 13: Non-typeable Haemophilus influenzae were grown for 16 h in supplemented BHI media containing additives as indicated above in 96 well plates at 37° C. and 5% CO2. Growth was quantified by spectrophotometric absorbance at 490 nm (left) and by enumeration of colony-forming units (right).
# (§1) Dicyclohexylamine inhibits spermidine synthase via a competitive inhibition mechanism, i.e. through binding to the same site on the protein as the putrescine substrate. Applicants therefore hypothesized that dicyclohexylamine would inhibit NTHi biofilm development.
# [3] = tested on: spermidine in the NTHI biofilm matrix; experiment: Immunofluorescence for spermidine in NTHI biofilm matrix; format: cell-based, Non-typeable Haemophilus influenzae; conditions: grown 40 h in presence of DCHA
# Protocol: FIG. 15: Non-typeable Haemophilus influenzae biofilms were grown for 40 h in supplemented BHI media containing additives as indicated above in 8 well chambered coverglass slides at 37° C. and 5% CO2. Biofilms were washed, probed with primary antibodies directed towards spermidine, a fluorescent secondary antibody (dark gray dots), and stained with DAPI (gray regions).
# as §1
# [4] = tested on: spermidine levels in UPEC biofilms; format: cell-based
# [5] = tested on: eDNA scaffold structure of NTHI biofilms; experiment: eDNA scaffold structure in early (3 h) NTHI biofilms, dsDNA immunofluorescence; format: cell-based, Non-typeable Haemophilus influenzae; conditions: DCHA 50 μM
# Protocol: FIGS. 3A-3C: Polyamine synthesis inhibitor reduces biofilm formation. (FIG. 3A) COMSTAT quantification of LIVE/DEAD® stained NTHI biofilms grown in the presence of dicyclohexylamine (DCHA, 50 μM), a spermidine (Spd) synthase inhibitor, Spd (1 mM), or both. Bars represent the SEM. Statistical significance compared to control was assessed by unpaired t-tests, *P<0.05. […] (FIG. 3B) Immunofluorescence microscopy images of eDNA scaffold structure in NTHI in vitro biofilms grown for 3 h in the presence of DCHA (50 μM). […] (FIG. 3C) Immunofluorescence CLSM images of NTHI in vitro biofilms grown for 40 h in the presence of DCHA. Probed for Spd (white dots in FIG. 3C lower panel) and counterstained with DAPI (gray regions).
# FIG. 16: Surface attached non-typeable Haemophilus influenzae were grown for 3 h in supplemented BHI media containing additives as indicated above in Fluorodish coverglass dishes at 37° C. and 5% CO2. Biofilms were washed, probed with primary antibodies directed towards double stranded DNA and a fluorescent secondary antibody (white).
# as §1
# [6] = tested on: Non-typeable Haemophilus influenzae biofilms; experiment: NTHI in vitro biofilm formation, additive present from seeding (LIVE/DEAD, CLSM, COMSTAT); format: cell-based; conditions: RNase A present from seeding, 16 h
# [7] = 50 μM dicyclohexylamine, 40 h, COMSTAT
# [8] = listed as Dicyclohexylamine (DCHA)
# [9] = listed as dicyclohexylamine (DCHA)
# [10] = listed as spermidine synthase inhibitor
molecule,measurement,setting,value
C1CCC(NC2CCCCC2)CC1 [dicyclohexylamine],biofilm roughness,"[1]; 50 μM dicyclohexylamine, 40 h",increasing biofilm roughness
same,reduction of biofilm biomass,[1]; [7],approximately 40%
same,reduction of biofilm thickness,[1]; [7],approximately 40%
same,"NTHI biofilm formation (average thickness, biomass)",[1],significantly inhibited NTHi biofilm formation
same,"NTHI biofilm formation (average thickness, biomass)",[1]; listed as DCHA,"inhibited biofilm biogenesis in vitro, decreasing average thickness and biomass; also recorded: Average thickness of biofilms was decreased"
same,"NTHI biofilm formation (average thickness, biomass)",[1]; listed as Dicyclohexylamine,inhibited biofilm biogenesis
same,"NTHI biofilm formation (average thickness, biomass)",[1]; [8],significantly decreased average thickness compared to sBHI control
same,"NTHI biofilm formation (average thickness, biomass)",[1]; [9],a significant decrease in biofilm average thickness
same,NTHi growth,[2],did not affect NTHi growth up to 10 mM
same,NTHi growth,[2]; listed as DCHA,did not affect NTHI growth
same,NTHi growth,[2]; [10],did not affect normal growth
same,spermidine / polyamine presence in NTHI biofilm matrix,[3],statistically significant corresponding decrease in spermidine present in the biofilm matrix
same,spermidine / polyamine presence in NTHI biofilm matrix,[3]; listed as DCHA,reduced extracellular polyamine incorporation into the biofilm EPS; also recorded: inhibits polyamine incorporation into the biofilm EPS
same,spermidine / polyamine presence in NTHI biofilm matrix,[3]; [8],reduces spermidine levels in NTHI and UPEC biofilms
same,spermidine / polyamine presence in NTHI biofilm matrix,[3]; [9],an overall decrease in spermidine levels as measured by IF
same,spermidine / polyamine presence in NTHI biofilm matrix,[3]; [10],reduced spermidine presence in the biofilm matrix
same,spermidine levels in UPEC biofilms,[4],reduces spermidine levels in NTHI and UPEC biofilms
same,eDNA scaffold structure amount and complexity,[5]; listed as DCHA,inhibited production of the eDNA scaffold; also recorded: eDNA scaffold structure production is greatly reduced
same,eDNA scaffold structure amount and complexity,[5]; listed as Dicyclohexylamine,reduced the amount and the complexity of eDNA scaffold structures
same,eDNA scaffold structure amount and complexity,[5]; [10],reduced both the presence and complexity of the extracellular DNA structure
"RNase A: ribonuclease (protein, UniProt P61823 27-150, looked up) Ribonuclease pancreatic: KETAAAKFERQHMDSSTSAASSSNYCNQMMKSRNLTKDRCKPVNTFVHESLADVQAVCSQKNVACKNGQTNCYQSYSTMSITDCRETGSSKYPNCAYKTTQANKHIIVACEGNPYVPVHFDASV",NTHI biofilm formation,[6],stimulated biofilm formation in a dose-dependent manner
